# Source: PubChem BioAssay AID2060900 (Molecular Pharmacology Branch, DTP, NCI, 2025)
# System: 521955-158-R2-J5-PDC complex spheroids, viability
# Assay: Anticancer human tumor 521955-158-R2-J5-PDC patient-derived pancreatic carcinoma cell line growth inhibition [RAS]
# Settings: for viability, T/C: stronger effect = lower value
# Outline: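 Agents were tested in combination matrices in half-log decrements from a top concentration at or near clinical Cmax (10 microM if undetermined). Targets were multi-cell spheroids of tumour lines plus HUVEC and MSC stromal cells.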
# [1] = curve of first compound, second compound 0.000949 µM
# [2] = curve of first compound, second compound 0.003 µM
# [3] = curve of first compound, second compound 0.00949 µM
# [4] = curve of first compound, second compound 0.03 µM
# [5] = curve of first compound, second compound 0.0949 µM
# [6] = curve of first compound, second compound 0.3 µM
# [7] = second compound 0.000949 µM, first compound 0.0316 µM
# [8] = second compound 0.000949 µM, first compound 0.1 µM
# [9] = second compound 0.000949 µM, first compound 0.316 µM
# [10] = second compound 0.000949 µM, first compound 1 µM
# [11] = second compound 0.003 µM, first compound 0.0316 µM
# [12] = second compound 0.003 µM, first compound 0.1 µM
# [13] = second compound 0.003 µM, first compound 0.316 µM
# [14] = second compound 0.003 µM, first compound 1 µM
# [15] = second compound 0.00949 µM, first compound 0.0316 µM
# [16] = second compound 0.00949 µM, first compound 0.1 µM
# [17] = second compound 0.00949 µM, first compound 0.316 µM
# [18] = second compound 0.00949 µM, first compound 1 µM
# [19] = second compound 0.03 µM, first compound 0.0316 µM
# [20] = second compound 0.03 µM, first compound 0.1 µM
# [21] = second compound 0.03 µM, first compound 0.316 µM
# [22] = second compound 0.03 µM, first compound 1 µM
# [23] = second compound 0.0949 µM, first compound 0.0316 µM
# [24] = second compound 0.0949 µM, first compound 0.1 µM
# [25] = second compound 0.0949 µM, first compound 0.316 µM
# [26] = second compound 0.0949 µM, first compound 1 µM
# [27] = second compound 0.3 µM, first compound 0.0316 µM
# [28] = second compound 0.3 µM, first compound 0.1 µM
# [29] = second compound 0.3 µM, first compound 0.316 µM
# [30] = second compound 0.3 µM, first compound 1 µM
# 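Further: compound exposure lasted seven days before the viability read.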
# 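Wherever viability, T/C is given: spheroids also contain HUVEC endothelial cells and mesenchymal stem cells as stroma.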
structure (smiles),measurement,setting,value
C=CC(=O)Nc1cc(Nc2nccc(-c3cn(C)c4ccccc34)n2)c(OC)cc1N(C)CCN(C)C + CCn1c(-c2cccnc2C(C)OC)c2c3cc(ccc31)N1CCOC(CC(NC(=O)C(C(C)C)N(C)C(=O)C3(F)CCN(C(=O)C#CC(C)(C)N(C)C)CC3)C(=O)N3CCCC(N3)C(=O)OCC(C)(C)C2)C1,IC50,[1],504 nM
same,IC50,[2],755 nM
same,IC50,[3],493 nM
same,IC50,[4],416 nM
same,IC50,[5],441 nM
same,IC50,[6],176 nM
same,"viability, T/C","second compound 0.000949 µM, first compound 0.00316 µM",89.9%
same,"viability, T/C","second compound 0.000949 µM, first compound 0.01 µM",84.1%
same,"viability, T/C",[7],84.1%
same,"viability, T/C",[8],72.6%
same,"viability, T/C",[9],59%
same,"viability, T/C",[10],37.1%
same,"viability, T/C","second compound 0.003 µM, first compound 0.00316 µM",110%
same,"viability, T/C","second compound 0.003 µM, first compound 0.01 µM",82.6%
same,"viability, T/C",[11],71.8%
same,"viability, T/C",[12],65.3%
same,"viability, T/C",[13],59.2%
same,"viability, T/C",[14],44.1%
same,"viability, T/C","second compound 0.00949 µM, first compound 0.00316 µM",101%
same,"viability, T/C","second compound 0.00949 µM, first compound 0.01 µM",91.5%
same,"viability, T/C",[15],88.6%
same,"viability, T/C",[16],75.4%
same,"viability, T/C",[17],61.4%
same,"viability, T/C",[18],34.1%
same,"viability, T/C","second compound 0.03 µM, first compound 0.00316 µM",88.6%
same,"viability, T/C","second compound 0.03 µM, first compound 0.01 µM",79.2%
same,"viability, T/C",[19],80%
same,"viability, T/C",[20],70.8%
same,"viability, T/C",[21],51.8%
same,"viability, T/C",[22],41%
same,"viability, T/C","second compound 0.0949 µM, first compound 0.00316 µM",86.3%
same,"viability, T/C","second compound 0.0949 µM, first compound 0.01 µM",95.8%
same,"viability, T/C",[23],70%
same,"viability, T/C",[24],70.2%
same,"viability, T/C",[25],56.6%
same,"viability, T/C",[26],36.9%
same,"viability, T/C","second compound 0.3 µM, first compound 0.00316 µM",70.2%
same,"viability, T/C","second compound 0.3 µM, first compound 0.01 µM",79.2%
same,"viability, T/C",[27],72%
same,"viability, T/C",[28],55.4%
same,"viability, T/C",[29],45.3%
same,"viability, T/C",[30],36.9%
CC1(O)CCCC1n1c(=O)c(C(F)F)cc2cnc(NC3CCN(S(C)(=O)=O)CC3)nc21 (configuration not stated) + CCn1c(-c2cc(N3CCN(C)CC3)cnc2C(C)OC)c2c3cc(ccc31)-c1csc(n1)CC(NC(=O)C1CC1C)C(=O)N1CCCC(N1)C(=O)OCC(C)(C)C2,IC50,[1],31.6 nM
same,IC50,[2],< 31.6 nM
same,IC50,[3],< 31.6 nM
same,IC50,[4],< 31.6 nM
same,IC50,[5],< 31.6 nM
same,IC50,[6],< 31.6 nM
same,"viability, T/C",[7],33%
same,"viability, T/C",[8],39%
same,"viability, T/C",[9],36.6%
same,"viability, T/C",[10],42.8%
same,"viability, T/C","second compound 0.000949 µM, first compound 3.16 µM",63.2%
same,"viability, T/C","second compound 0.000949 µM, first compound 10 µM",9%
same,"viability, T/C",[11],35.6%
same,"viability, T/C",[12],34.5%
same,"viability, T/C",[13],37.5%
same,"viability, T/C",[14],43.1%
same,"viability, T/C","second compound 0.003 µM, first compound 3.16 µM",50.5%
same,"viability, T/C","second compound 0.003 µM, first compound 10 µM",10.9%
same,"viability, T/C",[15],29.2%
same,"viability, T/C",[16],29.9%
same,"viability, T/C",[17],33.2%
same,"viability, T/C",[18],32.6%
same,"viability, T/C","second compound 0.00949 µM, first compound 3.16 µM",49.6%
same,"viability, T/C","second compound 0.00949 µM, first compound 10 µM",9.41%
same,"viability, T/C",[19],18.9%
same,"viability, T/C",[20],20.1%
same,"viability, T/C",[21],20.8%
same,"viability, T/C",[22],24.8%
same,"viability, T/C","second compound 0.03 µM, first compound 3.16 µM",28.9%
same,"viability, T/C","second compound 0.03 µM, first compound 10 µM",6.82%
same,"viability, T/C",[23],10.6%
same,"viability, T/C",[24],13.1%
same,"viability, T/C",[25],13.9%
same,"viability, T/C",[26],16.2%
same,"viability, T/C","second compound 0.0949 µM, first compound 3.16 µM",21.5%
same,"viability, T/C","second compound 0.0949 µM, first compound 10 µM",7%
same,"viability, T/C",[27],10.8%
same,"viability, T/C",[28],11.3%
same,"viability, T/C",[29],11.2%
same,"viability, T/C",[30],13.9%
same,"viability, T/C","second compound 0.3 µM, first compound 3.16 µM",19.1%
same,"viability, T/C","second compound 0.3 µM, first compound 10 µM",6.07%
CCn1c(-c2cccnc2C(C)OC)c2c3cc(ccc31)N1CCOC(CC(NC(=O)C(C(C)C)N(C)C(=O)C3(F)CCN(C(=O)C#CC(C)(C)N(C)C)CC3)C(=O)N3CCCC(N3)C(=O)OCC(C)(C)C2)C1 (configuration not stated),"viability, T/C",compound 0.000949 µM,101% [middle of 8 runs]
same,"viability, T/C",compound 0.003 µM,101% [middle of 8 runs]
same,"viability, T/C",compound 0.03 µM,94.8% [middle of 8 runs]
same,"viability, T/C",compound 0.3 µM,77.3% [middle of 8 runs]
same,IC50,"compound alone, run of 05/20/2024",> 300 nM
O=C(c1ccc(F)c(F)c1Nc1ccc(I)cc1F)N1CC(O)([C@@H]2CCCCN2)C1 + C#Cc1c(F)ccc2cc(O)cc(-c3ncc4c(N5CC6CCC(C5)N6)nc(OCC56CCCN5CC(F)C6)nc4c3F)c12,IC50,"curve of first compound, second compound 0.0316 µM",13.9 nM
same,IC50,"curve of first compound, second compound 0.1 µM",9.71 nM
same,IC50,"curve of first compound, second compound 0.316 µM",5.09 nM
same,IC50,"curve of first compound, second compound 1 µM",< 3.16 nM
same,IC50,"curve of first compound, second compound 3.16 µM",< 3.16 nM
same,IC50,"curve of first compound, second compound 10 µM",< 3.16 nM
same,"viability, T/C","second compound 0.0316 µM, first compound 0.00316 µM",57.3%
same,"viability, T/C","second compound 0.0316 µM, first compound 0.01 µM",53%
same,"viability, T/C","second compound 0.0316 µM, first compound 0.0316 µM",43.3%
same,"viability, T/C","second compound 0.0316 µM, first compound 0.1 µM",35.2%
same,"viability, T/C","second compound 0.0316 µM, first compound 0.316 µM",23.4%
same,"viability, T/C","second compound 0.0316 µM, first compound 1 µM",15.4%
same,"viability, T/C","second compound 0.1 µM, first compound 0.00316 µM",54.5%
same,"viability, T/C","second compound 0.1 µM, first compound 0.01 µM",54.2%
same,"viability, T/C","second compound 0.1 µM, first compound 0.0316 µM",34.3%
same,"viability, T/C","second compound 0.1 µM, first compound 0.1 µM",29.3%
same,"viability, T/C","second compound 0.1 µM, first compound 0.316 µM",20.1%
same,"viability, T/C","second compound 0.1 µM, first compound 1 µM",15%
same,"viability, T/C","second compound 0.316 µM, first compound 0.00316 µM",51.5%
same,"viability, T/C","second compound 0.316 µM, first compound 0.01 µM",47.6%
same,"viability, T/C","second compound 0.316 µM, first compound 0.0316 µM",38.4%
same,"viability, T/C","second compound 0.316 µM, first compound 0.1 µM",36%
same,"viability, T/C","second compound 0.316 µM, first compound 0.316 µM",19.1%
same,"viability, T/C","second compound 0.316 µM, first compound 1 µM",17%
same,"viability, T/C","second compound 1 µM, first compound 0.00316 µM",44.6%
same,"viability, T/C","second compound 1 µM, first compound 0.01 µM",43%
same,"viability, T/C","second compound 1 µM, first compound 0.0316 µM",38.6%
same,"viability, T/C","second compound 1 µM, first compound 0.1 µM",23.2%
same,"viability, T/C","second compound 1 µM, first compound 0.316 µM",14.4%
same,"viability, T/C","second compound 1 µM, first compound 1 µM",12.4%
same,"viability, T/C","second compound 3.16 µM, first compound 0.00316 µM",43.9%
same,"viability, T/C","second compound 3.16 µM, first compound 0.01 µM",41.9%
same,"viability, T/C","second compound 3.16 µM, first compound 0.0316 µM",27%
same,"viability, T/C","second compound 3.16 µM, first compound 0.1 µM",18.4%
same,"viability, T/C","second compound 3.16 µM, first compound 0.316 µM",10.9%
same,"viability, T/C","second compound 3.16 µM, first compound 1 µM",7.26%
same,"viability, T/C","second compound 10 µM, first compound 0.00316 µM",41.3%
same,"viability, T/C","second compound 10 µM, first compound 0.01 µM",29.1%
same,"viability, T/C","second compound 10 µM, first compound 0.0316 µM",27.2%
same,"viability, T/C","second compound 10 µM, first compound 0.1 µM",15.3%
same,"viability, T/C","second compound 10 µM, first compound 0.316 µM",2.76%
same,"viability, T/C","second compound 10 µM, first compound 1 µM",2.89%
C#Cc1c(F)ccc2cc(O)cc(-c3ncc4c(N5CC6CCC(C5)N6)nc(OCC56CCCN5CC(F)C6)nc4c3F)c12 (configuration not stated),"viability, T/C",compound 0.0316 µM,64.5% [middle of 8 runs]
same,"viability, T/C",compound 0.1 µM,57.3% [middle of 8 runs]
same,"viability, T/C",compound 0.316 µM,53.9% [middle of 8 runs]
same,"viability, T/C",compound 1 µM,51.1% [middle of 8 runs]
same,"viability, T/C",compound 3.16 µM,45.4% [middle of 8 runs]
same,"viability, T/C",compound 10 µM,35.1% [middle of 8 runs]
